According to patent publication US20140274682A1, “COMPOSITIONS AND METHODS FOR REDUCING DUST AND REPELLING, CONTROLLING, OR DIRECTING AN INSECT” (priority 2013, published 2014):

How the values were obtained:
honeybees = experiment: Honeybee repulsion experiment at feeding stations; assay type: in vivo; conditions: 2% by weight with 50% sucrose solution in feeder
Method: FIG. 5 describes the feeding station arrangement (A and B) for the honeybee repulsion experiments described herein. As set forth in […], panel (A) sets forth the bee cage positions on the left portion of panel (A) with the randomized feeding station positions on the right portion of panel (A). Panel (B) sets forth an alignment of the randomized feeding station positions with a distance of two meters between feeding stations. A total of eight feeding stations were evaluated at a ten meter distance in front of the respective bee hives. The feeding stations were placed two meters apart from one another.
Honeybees were trained to deep feeders (eight positions), each containing a 50% sucrose solution for one day. After the honeybees were trained to each feeder, the 50% sucrose feeder at randomized positions 1-8 was replaced with a shallow feeder containing a combination of repelling compounds and a 50% sucrose solution according to Table 9. In accordance with FIGS. 5 and 6, 2% by weight of Camphor oil (T4), Ajowan oil (T5), Camphor powder (T6), Rosemary oil (T7), and 2-Decanone (T8) in combination with a 50% sucrose treatment were added to feeders on day two.
Table 9 describes active agents evaluated for bee repulsion and their randomized feeding station positions. As described in […], T1 (control), T2 (control), T3 (control), T4 (Camphor oil), T5 (Ajowan oil), T6 (Camphor powder), T7 (Rosemary oil), and T8 (2-Decanone).
FIG. 5 evaluates the number of bees visiting a respective feed station over a time interval. FIG. 6 sets forth the mean number of honeybees visiting feeding station over a period of four hours.

[1] = Stability test of Poncho 600 with α-terpineol, clothianidin content by HPLC; assay type: physicochemical; conditions: in Poncho combined with α-terpineol; up to 54° C. for eight days
Method: Table 11 describes a stability test with a combination of α-terpineol and Poncho 600 evaluated at room temperature, 40° C., and 54° C. at zero time, 2 days, and 8 days as confirmed by HPLC.

[2] = Stability test of Poncho 600 with Eugenol, clothianidin content by HPLC; assay type: physicochemical; conditions: in Poncho combined with Eugenol; up to 54° C. for seven days
Method: Table 10 describes a stability test with a combination of Eugenol and Poncho evaluated at room temperature, 40° C., and 54° C. at zero time, 3 days, and 7 days as confirmed by high performance liquid chromatography (HPLC).

Structure (SMILES) | Repellency to honeybees at 24 hours (honeybees) | Repellency to honeybees at 24 hours (honeybees; listed as 2-decanone) | Repellency to honeybees over the 4 hour assessment period (honeybees; full 4 hour assessment period) | Chemical stability of clothianidin content [1] | Chemical stability of clothianidin content [2]
CCCCCCCCC(C)=O [Compound 2-Decanone, 2-decanone (methyl-n-octyl ketone)] | exhibited repellency | still repellent | highly repellent | – | –
CN/C(=N\[N+](=O)[O-])NCc1cnc(Cl)s1 [clothianidin] | – | – | – | exhibited chemical stability | exhibited chemical stability
